Measurements taken from patent US20060173068A1, “Amorphous and crystalline forms of dorzolamide hydrochloride and processes of making same” (priority 2005, published 2006).

Legend:
[1] = Effect of varying relative humidity on amorphous Dorzolamide hydrochloride (hygroscopicity chamber; LOD by TGA, crystal form by XRD); format: physicochemical
Description: (§1) The scanning parameters are as follows: the range is preferably about 2° to about 40° 2θ over a substantially continuous scan at a rate of about 3° per minute. The accuracy of peak positions is defined as ±0.2° due to experimental differences, such as instrumentations, sample preparations, and the like.
Thermal Gravimetric Analysis (TGA) is preferably performed with a Mettler Toledo TGA/SDTA 851^e. Sample weights preferably range from about 7 to about 15 mg, the heating rate is preferably about 10° C. per minute in a N2 stream having a flow rate of about 50 ml per minute over a scan range of about 30° to about 250° C.
Each of a series of 200 mg samples of amorphous Dorzolamide hydrochloride are exposed to a relative humidity (RH) of one of 0, 20, 40, 60, 80, and 100 percent for a period of 5 days at room temperature in a hygroscopicity chamber. The loss on drying (LOD) of the samples is measured by TGA before and after exposure, and the values obtained are plotted against the RH values. In addition, the crystal form of each sample is measured by XRD before and after the exposure.

[2] = Exposure of amorphous Dorzolamide HCl to about 160° C. for about 15 minutes, crystal form by XRD; format: physicochemical; settings: oven, open glass weighing bottle
Description: as §1

[3] = RH 0 %, 5 days, room temperature
[4] = RH 20 %, 5 days, room temperature
[5] = RH 40 %, 5 days, room temperature

Crystal form by XRD ([1]; Original sample, before exposure): amorphous
LOD (%) ([1]; Original sample, before exposure, LOD by TGA): 2.7%
Crystal form by XRD [1, 3]: amorphous
LOD (%) [1, 3]: 2.0%
Crystal form by XRD [1, 4]: amorphous
LOD (%) [1, 4]: 2.9%
Crystal form by XRD [1, 5]: amorphous
LOD (%) [1, 5]: 3.8%
LOD (%) ([1]; RH 60 %, 5 days, room temperature): 0.2%
Crystal form by XRD ([1]; RH 60 %, 5 days, room temperature, hydrochloride): Form II
Crystal form by XRD ([1]; RH 60 %, 5 days, room temperature, listed as Dorzolamide HCl, hydrochloride): transforms to crystal form II
LOD (%) ([1]; RH 80 %, 5 days, room temperature): 0.2%
Crystal form by XRD ([1]; RH 80 %, 5 days, room temperature, hydrochloride): Form II
Crystal form by XRD ([1]; RH 80 %, 5 days, room temperature, listed as Dorzolamide HCl, hydrochloride): transforms to crystal form II
LOD (%) ([1]; RH 100 %, 5 days, room temperature): 0.2%
Crystal form by XRD ([1]; RH 100 %, 5 days, room temperature, hydrochloride): Form II
Crystal form by XRD ([1]; RH 100 %, 5 days, room temperature, listed as Dorzolamide HCl, hydrochloride): transforms to crystal form II
SMILES: CCN[C@H]1C[C@H](C)S(=O)(=O)c2sc(S(N)(=O)=O)cc21.Cl [Amorphous Dorzolamide HCl, 5,6-dihydro-4-(S)-ethylamino-6-(S)-methyl-4H-thieno-[2,3-b]thiopyran-2-sulfonamide-7,7-dioxyde hydrochloride]
Crystal form by XRD after heating [2]: changed the material to the crystalline, anhydrous form II
